The experiment concerns HL-60. In words: Cytostatic activity against human HL60 cells after 72 hrs by MTT assay. The experiment is classed as functional, cell-based. To be noted: HL-60, 72 h.

≈ marks a conversion by molar mass, not a printed value.

Consider `C=C1CO[C@@]2(O[C@H]3C[C@H]4[C@@H]5CC=C6C[C@@H](O)C[C@@H](O[C@@H]7OC[C@H](O)[C@H](O)[C@H]7O[C@@H]7O[C@@H](C)[C@H](OC(C)=O)[C@@H](OC(C)=O)[C@H]7OC(C)=O)[C@]6(C)[C@H]5CC[C@]4(C)[C@H]3[C@@H]2C)[C@@H](O)[C@H]1O[C@@H]1O[C@H](C)C(=O)[C@H](O)[C@H]1O` [ACULEOSIDE A], for which the IC50 was 0.48 µg/mL (≈ 0.476 µM).

The IC50 is the concentration that gives 50% inhibition.

The record behind these values is ChEMBL document CHEMBL1150965, “Aculeoside B, a new bisdesmosidic spirostanol saponin from the underground parts of Ruscus aculeatus” (J Nat Prod, 1998).
